Data as given in doi:10.1101/2023.04.01.534865v1 (biorxiv, 2023).

Target: T1, GST-OSBP(377-807) (Homo sapiens, UniProt P22059)
T1 sequence (P22059 377-807): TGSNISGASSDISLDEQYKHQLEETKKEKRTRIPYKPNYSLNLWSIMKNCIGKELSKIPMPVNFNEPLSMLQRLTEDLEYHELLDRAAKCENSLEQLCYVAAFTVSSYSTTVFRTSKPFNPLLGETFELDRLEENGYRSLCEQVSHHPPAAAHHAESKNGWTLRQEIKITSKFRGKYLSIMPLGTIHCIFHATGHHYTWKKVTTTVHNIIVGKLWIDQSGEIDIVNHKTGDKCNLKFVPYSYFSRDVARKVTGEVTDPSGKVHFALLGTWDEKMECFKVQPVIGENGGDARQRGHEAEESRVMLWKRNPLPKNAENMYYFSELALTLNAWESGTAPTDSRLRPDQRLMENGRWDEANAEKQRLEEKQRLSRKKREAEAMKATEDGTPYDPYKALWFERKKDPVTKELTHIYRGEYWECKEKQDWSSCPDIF
Experiment: competitive fluorescence polarization
Assay type: binding

Row | Structure (SMILES) | IC50 [nM]
1 | C[C@H](CCC(=O)NCCCOCCCCOCCCNC(=O)OC(C)(C)C)[C@H]1CC[C@H]2[C@@H]3CC=C4C[C@@H](O)CC[C@]4(C)[C@H]3CC[C@]12C [C3_Boc, oxybipin-2] | 74
2 | C[C@H](CCC(=O)NCCCOCCCCOCCCNC(=O)CC12CC3CC(CC(C3)C1)C2)[C@H]1CC[C@H]2[C@@H]3CC=C4C[C@@H](O)CC[C@]4(C)[C@H]3CC[C@]12C [C3_HyT, oxybipin-1] | 142
